Source: paper PMC5306220 (European Journal of Clinical Pharmacology, 2016)

Columns and labels:
[1] = Safety: treatment-emergent adverse events, laboratory tests, vital signs, ECG;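 further: dosing after fasting overnight (8 h minimum), clinic stay to day 2, outpatient visits on days 3 and 4, and a telephone check for adverse events about 14 days after study exit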
[2] = Population PK/PD model fitted to study data: PK parameter estimates; assay type: in vivo, human; conditions: PK/PD model typical value
Excerpt: To bridge the adult and pediatric PK, the PK model included weight as an initial covariate on clearance and volume of distribution parameters, as shown in the following equation: Pi=Ppop⋅WTi/WTreference^b⋅e^ηi

[3] = Plasma and urine pharmacokinetics of alogliptin after a single oral dose (LC-MS/MS, noncompartmental)
blood pressure = conditions: patients with T2DM; cited from earlier work
[4] = 12.5 mg single dose, Group 1 10 to <14 years, N = 5
[5] = 12.5 mg single dose, Group 2 14 to <18 years, N = 8
[6] = 25 mg single dose, Group 1 10 to <14 years, N = 4
[7] = 25 mg single dose, Group 2 14 to <18 years, N = 7
[8] = 25 mg single dose, Group 3 Adults, N = 22
[9] = entire study period, all 46 subjects
[10] = pediatric subjects, 12.5-mg dose vs adults 25 mg

SMILES: Cn1c(=O)cc(N2CCC[C@@H](N)C2)n(Cc2ccccc2C#N)c1=O [alogliptin]
- Mild TEAEs: Subjects, N (%) [1, 4]: 3 (60.0)
- Moderate TEAEs: Subjects, N (%) [1, 4]: 0
- Not related TEAEs: Subjects, N (%) [1, 4]: 1 (20.0)
- Related TEAEs: Subjects, N (%) [1, 4]: 2 (40.0)
- Severe TEAEs: Subjects, N (%) [1, 4]: 0
- TEAEs: Subjects, N (%) [1, 4]: 3 (60.0)
- Mild TEAEs: Subjects, N (%) [1, 5]: 5 (62.5)
- Moderate TEAEs: Subjects, N (%) [1, 5]: 0
- Not related TEAEs: Subjects, N (%) [1, 5]: 3 (37.5)
- Related TEAEs: Subjects, N (%) [1, 5]: 2 (25.0)
- Severe TEAEs: Subjects, N (%) [1, 5]: 0
- TEAEs: Subjects, N (%) [1, 5]: 5 (62.5)
- Mild TEAEs: Subjects, N (%) [1, 6]: 1 (25.0)
- Moderate TEAEs: Subjects, N (%) [1, 6]: 0
- Not related TEAEs: Subjects, N (%) [1, 6]: 1 (25.0)
- Related TEAEs: Subjects, N (%) [1, 6]: 0
- Severe TEAEs: Subjects, N (%) [1, 6]: 0
- TEAEs: Subjects, N (%) [1, 6]: 1 (25.0)
- Mild TEAEs: Subjects, N (%) [1, 7]: 2 (28.6)
- Moderate TEAEs: Subjects, N (%) [1, 7]: 0
- Not related TEAEs: Subjects, N (%) [1, 7]: 2 (28.6)
- Related TEAEs: Subjects, N (%) [1, 7]: 0
- Severe TEAEs: Subjects, N (%) [1, 7]: 0
- TEAEs: Subjects, N (%) [1, 7]: 2 (28.6)
- Mild TEAEs: Subjects, N (%) [1, 8]: 7 (31.8)
- Moderate TEAEs: Subjects, N (%) [1, 8]: 1 (4.5)
- Not related TEAEs: Subjects, N (%) [1, 8]: 4 (18.2)
- Related TEAEs: Subjects, N (%) [1, 8]: 5 (22.7)
- Severe TEAEs: Subjects, N (%) [1, 8]: 1 (4.5)
- TEAEs: Subjects, N (%) [1, 8]: 9 (40.9)
- AEs leading to study drug discontinuation ([1]; entire study): No AEs led to study drug discontinuation
- abnormal ECG results reported as TEAE ([1]; entire study): No abnormal ECG result was reported as a TEAE
- deaths ([1]; entire study): no deaths occurred
- number of TEAEs [1, 9]: 36
- subjects who experienced TEAEs [1, 9]: 20
- tolerability ([1]; single doses 12.5 and 25 mg, pediatric and adult subjects): well tolerated
- Absorption rate constant [KA] in adult subjects ([2]; adult subjects): 1.66 h⁻¹
- Oral clearance [CL/F] in adult subjects ([2]; adult subjects, reference body weight 70 kg): 13.0 L/h
- Absorption rate constant [KA] in pediatric subjects ([2]; pediatric subjects): 0.590 h⁻¹
- Oral clearance [CL/F] in pediatric subjects ([2]; pediatric subjects, reference body weight 70 kg): 14.4 L/h
- Vd/F ([2]; human, plasma, oral, read-out: Central volume of distribution [V2/F]): 125 L
- mean CL/F higher in all pediatric subjects compared with adult subjects ([3]; groups 1 and 2 vs adults): up to 37%
- Tmax ([3]; human, plasma, po): 2 to 4 h
- correlation between dose-normalized AUC0-inf and creatinine clearance ([3]; pediatric and adult subjects): no correlations were observed
- mean AUC0-inf lower than in adults [3, 10]: 54%
- mean Cmax lower than in adults [3, 10]: 58%
- mean AUC0-inf lower than in adults receiving the 25-mg dose ([3]; pediatric subjects, 25-mg dose): 23%
- mean Cmax lower than in adults receiving the 25-mg dose ([3]; pediatric subjects, 25-mg dose): 26%
- effect on blood pressure (blood pressure): lower blood pressure
